In PubChem BioAssay AID256 (DTP/NCI, 2004):
Inconclusive results and toxic doses are left out.

System: CD2F1 mice, L1210 leukemia ip, survival T/C
Test: NCI In Vivo Anticancer Drug Screen. Data for tumor model L1210 Leukemia (intraperitoneal) in CD2F1 (CDF1) mice
Details: higher = longer survival
Summary of the method: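 Tumor-bearing mice (transplanted tumor) were split into treated and vehicle control groups, and the measured endpoint of each treated group was divided by that of its vehicle controls.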

[1] = endpoint: mean survival time, dose: 100.0 mg/kg/injection, schedule: Q01DX001 (ip), vehicle: saline
[2] = endpoint: mean survival time, dose: 200.0 mg/kg/injection, schedule: Q01DX001 (ip), vehicle: saline
[3] = endpoint: mean survival time, dose: 400.0 mg/kg/injection, schedule: Q01DX001 (ip), vehicle: saline
[4] = endpoint: mean survival time, dose: 75.0 mg/kg/injection, schedule: Q01DX001 (ip), vehicle: saline
[5] = endpoint: mean survival time, dose: 150.0 mg/kg/injection, schedule: Q01DX001 (ip), vehicle: saline
[6] = endpoint: mean survival time, dose: 300.0 mg/kg/injection, schedule: Q01DX001 (ip), vehicle: saline
[7] = endpoint: mean survival time, dose: 6.25 mg/kg/injection, schedule: Q01DX009 (ip), vehicle: saline
[8] = endpoint: mean survival time, dose: 12.5 mg/kg/injection, schedule: Q01DX009 (ip), vehicle: saline
[9] = endpoint: mean survival time, dose: 25.0 mg/kg/injection, schedule: Q01DX009 (ip), vehicle: saline
[10] = endpoint: mean survival time, dose: 100.0 mg/kg/injection, schedule: Q01DX001 (ip), vehicle: saline with Tween-80
[11] = endpoint: mean survival time, dose: 200.0 mg/kg/injection, schedule: Q01DX001 (ip), vehicle: saline with Tween-80
[12] = endpoint: mean survival time, dose: 400.0 mg/kg/injection, schedule: Q01DX001 (ip), vehicle: saline with Tween-80
[13] = endpoint: mean survival time, dose: 100.0 mg/kg/injection, schedule: Q04DX003 (ip), vehicle: saline with Tween-80
[14] = endpoint: mean survival time, dose: 200.0 mg/kg/injection, schedule: Q04DX003 (ip), vehicle: saline with Tween-80
[15] = endpoint: mean survival time, dose: 400.0 mg/kg/injection, schedule: Q04DX003 (ip), vehicle: saline with Tween-80

In the case of `COC(=O)c1[se]c(C(=O)OC)c(-c2ccccc2)c1-c1ccccc1`, the T/C [1] is reported as 100 % of control, the T/C [2] is reported as 103 % of control and the T/C [3] is reported as 103 % of control.

For `CCCCCC(C)NCCOC(=O)c1ccccc1` (configuration not stated), the T/C [4] was 103 % of control, the T/C [5] was 100 % of control and the T/C [6] was 108 % of control.

For `O=C(C=P(c1ccccc1)(c1ccccc1)c1ccccc1)c1ccc([N+](=O)[O-])cc1`, the T/C (endpoint: mean survival time, dose: 50.0 mg/kg/injection, schedule: Q01DX001 (ip), vehicle: Klucel (hydroxypropylcellulose) (HPC)) was 90 % of control, the T/C (endpoint: mean survival time, dose: 100.0 mg/kg/injection, schedule: Q01DX001 (ip), vehicle: Klucel (hydroxypropylcellulose) (HPC)) was 94 % of control and the T/C (endpoint: mean survival time, dose: 200.0 mg/kg/injection, schedule: Q01DX001 (ip), vehicle: Klucel (hydroxypropylcellulose) (HPC)) was 102 % of control. The T/C (endpoint: mean survival time, dose: 400.0 mg/kg/injection, schedule: Q01DX001 (ip), vehicle: Klucel (hydroxypropylcellulose) (HPC)) was 93 % of control.

With `CC(C)=NNCCO` the T/C [7] was 93 % of control, the T/C [8] was 95 % of control and the T/C [9] was 104 % of control.

In the case of `COc1cc(Cl)ccc1NC(=O)Nc1cccc(C(=O)O)c1`, the T/C (endpoint: mean survival time, dose: 12.5 mg/kg/injection, schedule: Q01DX009 (ip), vehicle: saline with Tween-80) is reported as 97 % of control, the T/C (endpoint: mean survival time, dose: 25.0 mg/kg/injection, schedule: Q01DX009 (ip), vehicle: saline with Tween-80) is reported as 90 % of control and the T/C (endpoint: mean survival time, dose: 50.0 mg/kg/injection, schedule: Q01DX009 (ip), vehicle: saline with Tween-80) is reported as 90 % of control. For the same compound, the T/C (endpoint: mean survival time, dose: 100.0 mg/kg/injection, schedule: Q01DX009 (ip), vehicle: saline with Tween-80) was 96 % of control and the T/C (endpoint: mean survival time, dose: 200.0 mg/kg/injection, schedule: Q01DX009 (ip), vehicle: saline with Tween-80) was 90 % of control.

For `CN1CCCN(O)C1=O`, the T/C (endpoint: mean survival time, dose: 37.5 mg/kg/injection, schedule: Q01DX007 (ip), vehicle: saline) was 94 % of control, the T/C (endpoint: mean survival time, dose: 75.0 mg/kg/injection, schedule: Q01DX007 (ip), vehicle: saline) was 92 % of control and the T/C (endpoint: mean survival time, dose: 150.0 mg/kg/injection, schedule: Q01DX007 (ip), vehicle: saline) was 94 % of control. For the same compound, the T/C (endpoint: mean survival time, dose: 300.0 mg/kg/injection, schedule: Q01DX007 (ip), vehicle: saline) was 100 % of control and the T/C (endpoint: mean survival time, dose: 600.0 mg/kg/injection, schedule: Q01DX007 (ip), vehicle: saline) was 100 % of control.

`O=C1c2ccccc2C(=O)N1CCBr` was tested, and the T/C [10] was 102 % of control, the T/C [11] was 109 % of control and the T/C [12] was 111 % of control.

`O=C(CCN1CCCCC1)c1ccc(C(F)(F)F)cc1` was tested, and the T/C (endpoint: mean survival time, dose: 3.13 mg/kg/injection, schedule: Q01DX009 (ip), vehicle: water) was 90 % of control and the T/C (endpoint: mean survival time, dose: 6.25 mg/kg/injection, schedule: Q01DX009 (ip), vehicle: water) was 90 % of control.

With `CC(CC(=O)O)C(NC(=O)OCc1ccccc1)C(=O)O` (configuration not stated) the T/C (endpoint: mean survival time, dose: 75.0 mg/kg/injection, schedule: Q04DX003 (ip), vehicle: saline) was 101 % of control, the T/C (endpoint: mean survival time, dose: 150.0 mg/kg/injection, schedule: Q04DX003 (ip), vehicle: saline) was 95 % of control and the T/C (endpoint: mean survival time, dose: 300.0 mg/kg/injection, schedule: Q04DX003 (ip), vehicle: saline) was 95 % of control.

`CC(=O)OCC1OC(n2cnc3c(I)nc(I)nc32)C(OC(C)=O)C1OC(C)=O` (configuration not stated) was tested, and the T/C (endpoint: median survival time, dose: 25.0 mg/kg/injection, schedule: Q01DX005 (ip), vehicle: saline with Tween-80) was 105 % of control, the T/C (endpoint: median survival time, dose: 50.0 mg/kg/injection, schedule: Q01DX005 (ip), vehicle: saline with Tween-80) was 95 % of control and the T/C (endpoint: median survival time, dose: 100.0 mg/kg/injection, schedule: Q01DX005 (ip), vehicle: saline with Tween-80) was 96 % of control. For the same compound, the T/C (endpoint: median survival time, dose: 200.0 mg/kg/injection, schedule: Q01DX005 (ip), vehicle: saline with Tween-80) was 95 % of control.

With `CCOC(=O)CCCCCCCCC(=O)Nc1ccc(-n2[nH]c(=O)cc2C)cc1` the T/C [13] was 92 % of control, the T/C [14] was 92 % of control and the T/C [15] was 87 % of control.

With `CCOC(=O)CC(=O)C(F)(F)F.[Cu+2]` the T/C (endpoint: mean survival time, dose: 2.5 mg/kg/injection, schedule: Q01DX009 (ip), vehicle: saline with Tween-80) was 98 % of control, the T/C (endpoint: mean survival time, dose: 5.0 mg/kg/injection, schedule: Q01DX009 (ip), vehicle: saline with Tween-80) was 98 % of control and the T/C (endpoint: mean survival time, dose: 10.0 mg/kg/injection, schedule: Q01DX009 (ip), vehicle: saline with Tween-80) was 95 % of control.

`CC(=O)OC1C(CO)OC2C1Oc1nc(=N)c(F)cn12` (configuration not stated) was tested, and the T/C (endpoint: mean survival time, dose: 3.13 mg/kg/injection, schedule: Q01DX009 (ip), vehicle: saline) was 101 % of control, the T/C [7] was 106 % of control and the T/C [8] was 110 % of control. For the same compound, the T/C [9] was 116 % of control.

With `O=C1CCCC(c2ccccc2)c2ccccc21` (configuration not stated) the T/C [1] was 97 % of control, the T/C [2] was 97 % of control and the T/C [3] was 97 % of control.

With `CC(C)(C)Nc1ccc([N+](=O)[O-])cc1Cl` the T/C (endpoint: mean survival time, dose: 12.5 mg/kg/injection, schedule: Q01DX001 (ip), vehicle: DMSO) was 89 % of control, the T/C (endpoint: mean survival time, dose: 25.0 mg/kg/injection, schedule: Q01DX001 (ip), vehicle: DMSO) was 100 % of control and the T/C (endpoint: mean survival time, dose: 25.0 mg/kg/injection, schedule: Q04DX003 (ip), vehicle: Klucel (hydroxypropylcellulose) (HPC)) was 93 % of control. For the same compound, the T/C (endpoint: mean survival time, dose: 50.0 mg/kg/injection, schedule: Q01DX001 (ip), vehicle: DMSO) was 103 % of control, the T/C (endpoint: mean survival time, dose: 50.0 mg/kg/injection, schedule: Q04DX003 (ip), vehicle: Klucel (hydroxypropylcellulose) (HPC)) was 94 % of control and the T/C (endpoint: mean survival time, dose: 100.0 mg/kg/injection, schedule: Q04DX003 (ip), vehicle: Klucel (hydroxypropylcellulose) (HPC)) was 91 % of control.

In the case of `O=C1OCSc2ccccc21`, the T/C (endpoint: mean survival time, dose: 25.0 mg/kg/injection, schedule: Q01DX009 (ip), vehicle: saline sonified) is reported as 108 % of control, the T/C (endpoint: mean survival time, dose: 50.0 mg/kg/injection, schedule: Q01DX009 (ip), vehicle: saline sonified) is reported as 102 % of control and the T/C (endpoint: mean survival time, dose: 100.0 mg/kg/injection, schedule: Q01DX009 (ip), vehicle: saline sonified) is reported as 102 % of control. For the same compound, the T/C [13] was 100 % of control, the T/C [14] was 101 % of control and the T/C [15] was 97 % of control.

`COc1cc(C2c3cc4c(cc3[C@@H](OC3OC5CO[C@@H](C)OC5C(O)C3O)[C@H]3COC(=O)C23)OCO4)cc(OC)c1OC` (some centres not stated) was tested, and the T/C (endpoint: median survival time, dose: 50.0 mg/kg/injection, schedule: Q01DX005 (ip), vehicle: saline) was 164 % of control, the T/C (endpoint: median survival time, dose: 60.0 mg/kg/injection, schedule: Q01DX009 (ip), vehicle: saline) was 161 % of control and the T/C (endpoint: median survival time, dose: 100.0 mg/kg/injection, schedule: Q01DX005 (ip), vehicle: saline) was 211 % of control. The T/C (endpoint: median survival time, dose: 100.0 mg/kg/injection, schedule: Q01DX009 (ip), vehicle: saline) was 277 % of control, the T/C (endpoint: median survival time, dose: 166.67 mg/kg/injection, schedule: Q01DX009 (ip), vehicle: saline) was 297 % of control and the T/C (endpoint: median survival time, dose: 200.0 mg/kg/injection, schedule: Q01DX005 (ip), vehicle: saline) was 211 % of control. For the same compound, the T/C (endpoint: median survival time, dose: 277.78 mg/kg/injection, schedule: Q01DX009 (ip), vehicle: saline) was 86 % of control.

In the case of `Nc1nccc2c1nnn2C1OC(CO)C(O)C1O` (configuration not stated), the T/C (endpoint: mean survival time, dose: 12.5 mg/kg/injection, schedule: Q01DX005 (ip), vehicle: water) is reported as 102 % of control, the T/C (endpoint: mean survival time, dose: 25.0 mg/kg/injection, schedule: Q01DX005 (ip), vehicle: water) is reported as 104 % of control and the T/C (endpoint: mean survival time, dose: 50.0 mg/kg/injection, schedule: Q01DX005 (ip), vehicle: water) is reported as 96 % of control. The T/C (endpoint: mean survival time, dose: 100.0 mg/kg/injection, schedule: Q01DX005 (ip), vehicle: water) was 102 % of control and the T/C (endpoint: mean survival time, dose: 200.0 mg/kg/injection, schedule: Q01DX005 (ip), vehicle: water) was 106 % of control.

With `O=C(Cc1ccccc1)C(O)c1ccccc1` (configuration not stated) the T/C [10] was 86 % of control, the T/C [11] was 92 % of control and the T/C [12] was 87 % of control.

In the case of `Cc1ccc(S(=O)(=O)Oc2cc([N+](=O)[O-])ccc2N)cc1`, the T/C (endpoint: mean survival time, dose: 100.0 mg/kg/injection, schedule: Q04DX003 (ip), vehicle: saline) is reported as 95 % of control, the T/C (endpoint: mean survival time, dose: 200.0 mg/kg/injection, schedule: Q04DX003 (ip), vehicle: saline) is reported as 100 % of control and the T/C (endpoint: mean survival time, dose: 400.0 mg/kg/injection, schedule: Q04DX003 (ip), vehicle: saline) is reported as 103 % of control.

With `CC(=O)O.CC(=O)O.CC(=O)O.CC(=O)O.[Rh].[Rh]` the T/C [7] was 110 % of control, the T/C [8] was 116 % of control and the T/C [9] was 100 % of control.

`Clc1ccc(C(=C(c2ccc(Cl)cc2)c2ccc(Cl)cc2)c2ccc(Cl)cc2)cc1` was tested, and the T/C [4] was 100 % of control, the T/C [5] was 95 % of control and the T/C [6] was 93 % of control.

For `Cc1cc2nc3c4ccccc4n(C)c3nc2cc1C`, the T/C (endpoint: mean survival time, dose: 50.0 mg/kg/injection, schedule: Q01DX009 (sc), vehicle: Klucel (hydroxypropylcellulose) (HPC)) was 101 % of control, the T/C (endpoint: mean survival time, dose: 100.0 mg/kg/injection, schedule: Q01DX009 (sc), vehicle: Klucel (hydroxypropylcellulose) (HPC)) was 104 % of control and the T/C (endpoint: mean survival time, dose: 200.0 mg/kg/injection, schedule: Q01DX009 (sc), vehicle: Klucel (hydroxypropylcellulose) (HPC)) was 104 % of control.
